Activity calls are given as the source filed them.
Key:
Vero [1] = experiment: cells; type: functional, cell-based; conditions: Chlorocebus sabaeus
[2] = biological target: T1, Microphthalmia-associated transcription factor (Homo sapiens, UniProt O75030); experiment: reducers of TRPM1 reporter luminescence, concentration series – cell-based, SK-MEL-5, cherry-picked, set 3, MITF inhibitor project, dose response (AID 493073); type: functional;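 note: SK-MEL-5 melanoma cells with luciferase driven by the MITF target TRPM1 promoter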
T1 sequence (O75030 whole entry): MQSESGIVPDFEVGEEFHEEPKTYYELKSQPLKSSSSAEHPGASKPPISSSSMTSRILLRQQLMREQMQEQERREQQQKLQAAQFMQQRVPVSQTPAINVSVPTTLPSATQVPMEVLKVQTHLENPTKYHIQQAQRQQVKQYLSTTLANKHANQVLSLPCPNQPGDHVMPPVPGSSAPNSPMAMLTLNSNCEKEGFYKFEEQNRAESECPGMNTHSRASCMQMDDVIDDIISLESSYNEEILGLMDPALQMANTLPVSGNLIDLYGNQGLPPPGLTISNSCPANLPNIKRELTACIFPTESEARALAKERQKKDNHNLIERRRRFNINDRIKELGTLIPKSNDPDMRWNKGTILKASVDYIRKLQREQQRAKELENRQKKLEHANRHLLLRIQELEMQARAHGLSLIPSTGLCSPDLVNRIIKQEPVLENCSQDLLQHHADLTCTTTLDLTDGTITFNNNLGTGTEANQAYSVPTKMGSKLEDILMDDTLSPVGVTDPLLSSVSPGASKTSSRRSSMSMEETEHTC

Vero [3] = experiment: cells; type: functional; conditions: Chlorocebus sabaeus
[4] = potency of ADAM10 substrate cleavage blockers – biochemical, QFRET, dose response (AID 743254);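 note: ADAM10 enzyme with the DM2 quenched FRET peptide as substrate; EDANS fluorescence gain as the protease cuts the substrate; inhibitor potency against ADAM10 proteolytic activity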
HEK293 [5] = experiment: membrane integrity loss in HEK cells – cell-based, fluorescence, cytotoxicity control for IDE activator project, dose response (AID 588440); type: functional; conditions: Homo sapiens;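 note: cytotoxicity by LDH release measuring loss of membrane integrity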
HEK293 [6] = experiment: optical interference in Abeta FP readout, dose response, artefact control for IDE activator project, biochemical, fluorescence polarization (AID 588442); type: functional, cell-based; conditions: Homo sapiens
[7] = Luminescence Cell-Based Dose Retest to Confirm Inhibitors of Cancer Stem Cells. [Related pubchem assays (depositor defined):AID2717, AID2721]; type: functional; conditions: Homo sapiens
[8] = biological target: Disintegrin and metalloproteinase domain-containing protein 17 (Homo sapiens, UniProt P78536); experiment: inhibition of ADAM17 substrate cleavage – biochemical, quenched FRET substrate, counter-screen for ADAM10 exosite inhibitor project, dose response (AID 743253)
[9] = biological target: Heat shock protein HSP 90-alpha (Homo sapiens, UniProt P07900); type: functional, organism-based
Insulin-degrading enzyme [10] = biological target: T2, Insulin-degrading enzyme (Homo sapiens, UniProt P14735); experiment: cellular IDE activation of Abeta substrate cleavage – fluorescence polarization, HEK cells, dose response (AID 588439); type: functional, cell-based
T2 sequence (P14735 whole entry): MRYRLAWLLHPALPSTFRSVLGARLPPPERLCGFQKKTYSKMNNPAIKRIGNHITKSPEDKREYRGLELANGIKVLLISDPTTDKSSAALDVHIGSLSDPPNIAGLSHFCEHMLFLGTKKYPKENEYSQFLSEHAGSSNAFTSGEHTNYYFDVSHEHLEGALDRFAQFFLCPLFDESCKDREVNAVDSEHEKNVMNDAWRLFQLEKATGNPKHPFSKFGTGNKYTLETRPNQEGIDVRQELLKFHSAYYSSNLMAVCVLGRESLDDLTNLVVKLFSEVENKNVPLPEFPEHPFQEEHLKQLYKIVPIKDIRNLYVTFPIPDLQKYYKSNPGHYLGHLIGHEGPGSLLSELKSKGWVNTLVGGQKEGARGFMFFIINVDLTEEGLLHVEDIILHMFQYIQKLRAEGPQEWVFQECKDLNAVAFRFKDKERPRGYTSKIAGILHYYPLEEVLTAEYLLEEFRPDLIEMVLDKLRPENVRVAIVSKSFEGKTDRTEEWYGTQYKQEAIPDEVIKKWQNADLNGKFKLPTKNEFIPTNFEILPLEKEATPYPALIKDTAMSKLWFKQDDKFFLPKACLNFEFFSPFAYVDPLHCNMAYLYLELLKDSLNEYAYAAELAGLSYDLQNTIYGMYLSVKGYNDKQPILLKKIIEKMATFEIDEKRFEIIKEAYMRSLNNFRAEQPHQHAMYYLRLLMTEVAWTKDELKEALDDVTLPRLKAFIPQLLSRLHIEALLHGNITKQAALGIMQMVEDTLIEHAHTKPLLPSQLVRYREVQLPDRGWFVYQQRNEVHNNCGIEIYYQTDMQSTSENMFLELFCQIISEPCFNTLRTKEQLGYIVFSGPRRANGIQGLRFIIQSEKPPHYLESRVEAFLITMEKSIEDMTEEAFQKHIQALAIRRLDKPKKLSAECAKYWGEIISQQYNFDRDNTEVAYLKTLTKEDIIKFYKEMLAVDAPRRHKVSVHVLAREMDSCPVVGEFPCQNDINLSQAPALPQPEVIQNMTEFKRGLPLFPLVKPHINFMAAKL

Insulin-degrading enzyme [11] = biological target: T2, Insulin-degrading enzyme; experiment: recombinant IDE activation, cell-free – biochemical, fluorescence polarization, counter-screen for IDE activator project, dose response (AID 588681)
INS1 = experiment: INS-1E survival protection against cytokine death – cell-based, luminescence, retest, dose response (AID 449756); type: functional; conditions: Rattus norvegicus;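 note: cell death triggered by IL-1 beta plus TNF-alpha plus IFN-gamma mixture; protective hits raise ATP signal compared with cytokine alone wells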
[12] = biological target: T3, Ubiquitin-conjugating enzyme E2 N (Homo sapiens, UniProt P61088); type: functional;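 note: Dose-response confirmation in a TR-FRET assay detecting UBC13-driven polyubiquitin chain formation, inhibition measured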
T3 sequence (P61088 whole entry): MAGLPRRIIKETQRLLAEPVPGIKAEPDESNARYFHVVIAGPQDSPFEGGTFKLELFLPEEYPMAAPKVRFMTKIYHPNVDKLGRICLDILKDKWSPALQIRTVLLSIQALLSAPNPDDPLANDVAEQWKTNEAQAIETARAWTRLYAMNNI

Vero [13] = experiment: viability of Vero cells under compound – cytotoxicity control for flavivirus capping enzyme inhibitors (AID 588742); type: functional; conditions: Chlorocebus sabaeus
[14] = biological target: T4, Serine/threonine-protein phosphatase (Candida dubliniensis (strain CD36 / CBS 7987 / NCPF 3949 / NRRLY-17841) (Yeast), UniProt B9W6M3); experiment: blockers of CaCl2-induced CDRE-lacZ signaling – S. cerevisiae, luminescence, secondary, dose response (AID 2388); type: functional, cell-based;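 note: yeast reporter cells carrying a calcineurin-responsive lacZ construct stimulated with calcium chloride; luminescent beta-galactosidase reporter signal in whole cells rather than isolated phosphatase activity; potency for inhibition where a drop in reporter signal means calcineurin blockade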
T4 sequence (B9W6M3 whole entry): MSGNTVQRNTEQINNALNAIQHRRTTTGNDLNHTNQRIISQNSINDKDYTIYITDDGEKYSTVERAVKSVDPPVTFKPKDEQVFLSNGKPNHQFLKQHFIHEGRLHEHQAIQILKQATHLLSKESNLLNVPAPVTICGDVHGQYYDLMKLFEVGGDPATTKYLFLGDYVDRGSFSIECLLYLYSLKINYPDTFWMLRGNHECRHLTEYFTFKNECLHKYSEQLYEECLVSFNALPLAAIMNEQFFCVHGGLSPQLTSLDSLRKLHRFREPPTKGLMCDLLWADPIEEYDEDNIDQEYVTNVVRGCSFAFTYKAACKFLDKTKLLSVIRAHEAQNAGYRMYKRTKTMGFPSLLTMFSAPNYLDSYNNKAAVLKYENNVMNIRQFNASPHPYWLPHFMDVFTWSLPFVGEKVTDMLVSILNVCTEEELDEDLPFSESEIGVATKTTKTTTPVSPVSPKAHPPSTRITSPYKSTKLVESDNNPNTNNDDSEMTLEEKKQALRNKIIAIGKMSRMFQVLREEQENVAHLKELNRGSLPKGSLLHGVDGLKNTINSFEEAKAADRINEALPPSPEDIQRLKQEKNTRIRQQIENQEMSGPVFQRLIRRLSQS

[15] = NIH-3T3 fibroblast cytotoxicity, dose response, cytotoxicity control, cell-based, fluorescence, Alamar Blue, secondary assay (AID 2327); type: functional;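 note: NIH-3T3 mouse fibroblasts cultured with fluconazole at 8 µg/mL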
[16] = fluconazole-exposed Candida albicans growth modulators – fluorescence, retest, confirmation (AID 2467); type: functional, cell-based
[17] = biological target: ATP-dependent molecular chaperone HSP82 (Candida albicans (strain WO-1) (Yeast), UniProt C4YTQ8); experiment: steroid-induced GRE reporter decrease in yeast – S. cerevisiae, luminescence, Hsp90 inhibitor project, dose response (AID 2400); type: functional, cell-based;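 note: beta-galactosidase luminescence from glucocorticoid response element reporter as proxy for Hsp90 function; inhibitor potency where signal loss means Hsp90 inhibition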
[18] = non-specific 3'UTR reporter inhibition in Clone20-Shn3RL – cell-based, Renilla luciferase, cherry-picked, counter-screen for Shn3 inhibitor project, dose response (AID 624133); type: functional
Fatty acid synthase [19] = biological target: T5, Fatty acid synthase (Homo sapiens, UniProt P49327); experiment: inhibition of human FAS-TE enzyme activity – biochemical, kinetic fluorescence intensity, dose response (AID 624326); type: functional;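 note: rate of fluorescence rise from hydrolysis of a fluorogenic O-methyl fluorescein ester substrate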
Fatty acid synthase [20] = biological target: T5, Fatty acid synthase; experiment: inhibition of human FAS-TE enzyme activity – biochemical, endpoint fluorescence intensity, uHTS hits, dose response (AID 624327); type: functional;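 note: fluorescence from hydrolysis of an O-methyl fluorescein acyl ester substrate by the enzyme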
[21] = reduction of Shn3 3'UTR-driven luciferase in osteoblasts – cell-based, Clone20 osteoblasts, firefly luciferase, cherry-picked, dose response (AID 624132); type: functional;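 note: firefly luciferase luminescence from reporter carrying the Shn3 3'UTR in osteoblasts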
[22] = loss of viability in HepG2 cells – cell-based, CellTiter-Glo, cherry-picked, cytotoxicity control for Shn3 inhibitor project, dose response (AID 624134); type: functional
[23] = biological target: T6, Probable nicotinate-nucleotide adenylyltransferase (Staphylococcus aureus (strain N315), UniProt P65502); type: functional, Staphylococcus aureus subsp. aureus N315;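 for IC50 Mean: confirmatory dose-response retesting of NadD inhibitor hits first found in an ultra-high-throughput screen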
[24] = biological target: T6, Probable nicotinate-nucleotide adenylyltransferase; type: functional, Staphylococcus aureus subsp. aureus N315; conditions: read-out: IC50_Mean
[25] = biological target: T7, Low molecular weight phosphotyrosine protein phosphatase (Homo sapiens, UniProt P24666); type: functional; conditions: read-out: IC50_Mean;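 note: Dose-response confirmation assay measuring inhibition of LMPTP enzyme activity by fluorescence intensity read-out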
T7 sequence (P24666 whole entry): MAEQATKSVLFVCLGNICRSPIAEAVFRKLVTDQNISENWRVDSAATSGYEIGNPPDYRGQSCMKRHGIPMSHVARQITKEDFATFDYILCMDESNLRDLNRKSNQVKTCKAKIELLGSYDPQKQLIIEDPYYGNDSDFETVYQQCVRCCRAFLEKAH

Streptococcus = experiment: GAS UMAA2166 growth inhibition – luminescence, BacTiterGlo, counter-screen for streptokinase expression inhibitor project, dose response (AID 1915); type: functional, organism-based;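 note: potency for reduction of bacterial viability or growth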
[26] = test system: Streptococcus sp. 'group A'; experiment: Streptococcus pyogenes SK(-)GAS viability under kanamycin – luminescence, BacTiterGlo, confirmation, counter-screen for streptokinase expression inhibitor project, dose response (AID 1900); type: functional, organism-based

T6 sequence (P65502 whole entry): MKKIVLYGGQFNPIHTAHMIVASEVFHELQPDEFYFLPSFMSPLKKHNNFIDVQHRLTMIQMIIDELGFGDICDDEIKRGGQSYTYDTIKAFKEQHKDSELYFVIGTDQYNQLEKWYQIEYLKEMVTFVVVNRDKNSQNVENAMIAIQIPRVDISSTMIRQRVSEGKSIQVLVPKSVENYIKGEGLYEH
T5 sequence (P49327 whole entry): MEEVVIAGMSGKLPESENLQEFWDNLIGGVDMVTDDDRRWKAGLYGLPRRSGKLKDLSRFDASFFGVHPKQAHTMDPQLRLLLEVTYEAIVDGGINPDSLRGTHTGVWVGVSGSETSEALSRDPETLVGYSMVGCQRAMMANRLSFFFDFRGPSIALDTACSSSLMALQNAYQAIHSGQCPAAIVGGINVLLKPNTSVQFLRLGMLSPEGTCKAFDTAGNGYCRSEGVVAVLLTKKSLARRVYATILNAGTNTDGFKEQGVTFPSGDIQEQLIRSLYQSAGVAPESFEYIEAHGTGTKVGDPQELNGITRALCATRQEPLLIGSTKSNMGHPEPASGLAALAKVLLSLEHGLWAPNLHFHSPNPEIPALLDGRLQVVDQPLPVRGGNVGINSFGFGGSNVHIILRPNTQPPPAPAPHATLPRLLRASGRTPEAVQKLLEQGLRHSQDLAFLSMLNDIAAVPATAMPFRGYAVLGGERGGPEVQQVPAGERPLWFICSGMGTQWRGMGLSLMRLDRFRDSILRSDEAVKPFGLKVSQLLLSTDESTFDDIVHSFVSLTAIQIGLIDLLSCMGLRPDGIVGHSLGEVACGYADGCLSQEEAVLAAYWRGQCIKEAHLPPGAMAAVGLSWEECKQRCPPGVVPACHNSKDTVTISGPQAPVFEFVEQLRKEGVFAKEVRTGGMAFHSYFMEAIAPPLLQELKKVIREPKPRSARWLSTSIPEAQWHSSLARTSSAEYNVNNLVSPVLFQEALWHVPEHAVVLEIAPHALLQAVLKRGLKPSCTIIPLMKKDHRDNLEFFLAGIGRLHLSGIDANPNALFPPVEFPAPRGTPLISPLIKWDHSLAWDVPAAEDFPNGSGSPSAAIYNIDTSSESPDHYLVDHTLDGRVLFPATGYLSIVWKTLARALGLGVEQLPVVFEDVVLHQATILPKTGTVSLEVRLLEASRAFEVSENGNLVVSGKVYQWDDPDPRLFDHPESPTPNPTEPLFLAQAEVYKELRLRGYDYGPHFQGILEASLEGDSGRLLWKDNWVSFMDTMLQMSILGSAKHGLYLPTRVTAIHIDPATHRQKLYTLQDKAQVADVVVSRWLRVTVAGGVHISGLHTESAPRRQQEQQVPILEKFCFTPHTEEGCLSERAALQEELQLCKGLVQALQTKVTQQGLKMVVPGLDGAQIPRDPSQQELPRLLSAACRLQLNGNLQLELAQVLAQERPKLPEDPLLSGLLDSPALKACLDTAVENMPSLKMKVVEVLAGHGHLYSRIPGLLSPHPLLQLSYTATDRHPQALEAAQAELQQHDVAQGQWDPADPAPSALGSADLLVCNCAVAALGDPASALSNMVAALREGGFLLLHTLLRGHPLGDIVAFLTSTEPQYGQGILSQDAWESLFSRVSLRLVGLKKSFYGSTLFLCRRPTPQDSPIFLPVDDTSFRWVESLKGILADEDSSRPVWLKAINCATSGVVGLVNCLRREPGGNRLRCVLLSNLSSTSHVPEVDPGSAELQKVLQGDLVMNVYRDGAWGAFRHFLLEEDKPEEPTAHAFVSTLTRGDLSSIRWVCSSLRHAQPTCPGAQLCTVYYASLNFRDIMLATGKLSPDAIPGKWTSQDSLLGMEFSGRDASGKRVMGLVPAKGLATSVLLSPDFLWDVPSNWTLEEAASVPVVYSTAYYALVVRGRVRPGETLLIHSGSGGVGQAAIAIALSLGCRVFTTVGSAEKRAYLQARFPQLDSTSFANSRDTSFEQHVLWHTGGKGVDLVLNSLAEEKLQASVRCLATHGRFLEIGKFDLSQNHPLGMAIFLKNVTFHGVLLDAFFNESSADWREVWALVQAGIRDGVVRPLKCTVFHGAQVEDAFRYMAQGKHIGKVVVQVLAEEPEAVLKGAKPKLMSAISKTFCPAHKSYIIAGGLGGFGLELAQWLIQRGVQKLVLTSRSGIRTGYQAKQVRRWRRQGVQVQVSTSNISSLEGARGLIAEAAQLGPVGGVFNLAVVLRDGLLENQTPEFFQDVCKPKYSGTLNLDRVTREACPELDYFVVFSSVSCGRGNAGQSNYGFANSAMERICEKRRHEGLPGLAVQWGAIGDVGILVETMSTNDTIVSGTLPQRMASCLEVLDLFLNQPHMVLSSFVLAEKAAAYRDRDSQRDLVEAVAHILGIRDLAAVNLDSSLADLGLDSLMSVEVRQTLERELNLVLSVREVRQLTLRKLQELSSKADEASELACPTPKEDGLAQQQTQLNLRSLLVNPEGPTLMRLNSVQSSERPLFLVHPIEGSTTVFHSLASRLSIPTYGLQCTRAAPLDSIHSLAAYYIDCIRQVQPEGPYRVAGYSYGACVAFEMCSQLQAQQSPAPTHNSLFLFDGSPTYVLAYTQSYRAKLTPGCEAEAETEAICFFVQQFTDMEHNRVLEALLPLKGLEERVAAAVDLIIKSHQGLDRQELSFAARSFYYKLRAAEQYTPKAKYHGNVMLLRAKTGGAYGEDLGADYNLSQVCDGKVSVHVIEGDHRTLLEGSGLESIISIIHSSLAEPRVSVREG
Chain of ATP-dependent molecular chaperone HSP82 (C4YTQ8 whole entry): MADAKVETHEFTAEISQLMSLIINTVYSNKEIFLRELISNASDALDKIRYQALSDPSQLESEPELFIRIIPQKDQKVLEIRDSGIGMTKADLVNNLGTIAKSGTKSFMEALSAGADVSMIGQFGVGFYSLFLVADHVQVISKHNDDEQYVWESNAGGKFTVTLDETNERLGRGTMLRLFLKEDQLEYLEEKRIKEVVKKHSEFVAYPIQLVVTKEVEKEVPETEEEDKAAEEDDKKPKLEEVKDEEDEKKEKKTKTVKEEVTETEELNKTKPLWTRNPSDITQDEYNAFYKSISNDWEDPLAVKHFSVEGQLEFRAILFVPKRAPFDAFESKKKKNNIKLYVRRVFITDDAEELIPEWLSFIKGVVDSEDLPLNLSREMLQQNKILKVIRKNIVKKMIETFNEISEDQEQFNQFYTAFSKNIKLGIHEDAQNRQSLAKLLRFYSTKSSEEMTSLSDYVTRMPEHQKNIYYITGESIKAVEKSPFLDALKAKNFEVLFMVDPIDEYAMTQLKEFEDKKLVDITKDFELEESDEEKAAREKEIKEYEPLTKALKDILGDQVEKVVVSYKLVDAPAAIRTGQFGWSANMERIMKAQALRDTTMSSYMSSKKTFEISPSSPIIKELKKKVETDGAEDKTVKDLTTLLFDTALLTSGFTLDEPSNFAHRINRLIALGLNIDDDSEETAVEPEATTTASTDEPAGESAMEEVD
Chain of Disintegrin and metalloproteinase domain-containing protein 17 (P78536 whole entry, the tested form may be a part): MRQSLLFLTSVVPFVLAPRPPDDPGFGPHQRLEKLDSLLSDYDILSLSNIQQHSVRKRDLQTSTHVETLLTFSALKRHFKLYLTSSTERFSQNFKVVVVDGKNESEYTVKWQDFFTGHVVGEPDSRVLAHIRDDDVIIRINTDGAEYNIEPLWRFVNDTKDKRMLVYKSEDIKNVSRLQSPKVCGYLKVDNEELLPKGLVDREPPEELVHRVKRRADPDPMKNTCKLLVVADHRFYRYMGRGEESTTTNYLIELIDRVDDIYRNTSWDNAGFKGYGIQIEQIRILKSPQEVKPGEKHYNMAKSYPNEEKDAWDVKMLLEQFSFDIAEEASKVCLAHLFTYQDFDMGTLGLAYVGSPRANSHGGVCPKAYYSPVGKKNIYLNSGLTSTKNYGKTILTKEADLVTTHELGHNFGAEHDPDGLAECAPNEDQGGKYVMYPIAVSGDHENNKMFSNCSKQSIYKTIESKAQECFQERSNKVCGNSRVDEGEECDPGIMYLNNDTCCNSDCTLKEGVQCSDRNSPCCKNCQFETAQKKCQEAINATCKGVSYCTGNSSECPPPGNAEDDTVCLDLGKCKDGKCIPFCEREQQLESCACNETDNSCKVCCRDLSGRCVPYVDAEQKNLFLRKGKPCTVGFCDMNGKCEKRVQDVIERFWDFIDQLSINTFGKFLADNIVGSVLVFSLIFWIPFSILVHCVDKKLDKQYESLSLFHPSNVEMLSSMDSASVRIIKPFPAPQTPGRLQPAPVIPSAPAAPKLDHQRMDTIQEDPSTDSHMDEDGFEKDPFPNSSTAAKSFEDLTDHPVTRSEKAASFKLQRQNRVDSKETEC

Cc1oc(-c2ccc(Cl)cc2)nc1CN1CCC(C(=O)NCCCN2CCCC(C)C2)CC1 (configuration not stated)
IC50 (Vero [1]): 4.32 µM (active)
AC50 [2]: 13.2 µM (active)
CC50 (Vero [3]): 22.5 µM (active)

CC1(C)C=Cc2c(ccc3c2OC[C@H](c2ccc(O)cc2O)C3)O1
IC50 [4]: 19.5 µM (inactive)
IC50 (HEK293 [5]): 22.1 µM (inactive)
EC50 (HEK293 [6]): > 54.7 µM (inactive)
AC50 [7]: 3.16 µM (active)
IC50 [8]: > 69.5 µM (inactive)
AC50 [9]: 7.45 µM (active)
EC50 (Insulin-degrading enzyme [10]): > 54.7 µM (inactive)
EC50 (Insulin-degrading enzyme [11]): > 54.7 µM (inactive)

CCOC(=O)/C=C/CN(C(=O)OC(C)(C)C)S(=O)(=O)N1CC=CC1
IC50 (HEK293 [5]): > 89.2 µM (inactive)
EC50 (HEK293 [6]): > 55.9 µM (inactive)
EC50 (Insulin-degrading enzyme [10]): > 54.7 µM (inactive)
EC50 (Insulin-degrading enzyme [11]): > 54.7 µM (inactive)

COC(=O)C1=C(C)N(Cc2ccccc2)C(NCc2cccc(Cl)c2)=N[C@H]1c1cccc(F)c1
IC50 (HEK293 [5]): 12.1 µM (inactive)
AC50 (INS1): 7.03 µM (active)
IC50 [12]: > 20 µM (inactive)
EC50 (HEK293 [6]): > 56 µM (inactive)
AC50 [7]: 3.48 µM (active)
EC50 (Insulin-degrading enzyme [10]): 25.2 µM (inactive)
EC50 (Insulin-degrading enzyme [11]): > 54.7 µM (inactive)

O=C(Nc1ccncc1)c1cc2ccccc2cc1O
CC50 (Vero [13]): > 40 µM (active)

Cc1cc(=O)oc2cc(Oc3ccc([N+](=O)[O-])cc3[N+](=O)[O-])ccc12
EC50 [14]: > 180 µM (inactive)
EC50 [15]: 35.9 µM (inconclusive)
EC50 [16]: 1.3 µM (active)
EC50 [17]: > 160 µM (inactive)

O=C1C(F)=CC(COC(c2ccccc2)(c2ccccc2)c2ccccc2)OC1n1cc(F)c(=O)[nH]c1=O (configuration not stated)
IC50 (Vero [1]): 12.1 µM (active)
AC50 [18]: 2.42 µM (active)
IC50 (Fatty acid synthase [19]): 8.13 µM (active)
IC50 (Fatty acid synthase [20]): 7.69 µM (active)
CC50 (Vero [3]): 6.83 µM (active)
AC50 [9]: 2.6 µM (active)
AC50 [21]: 0.428 µM (active)
AC50 [22]: 9.11 µM (active)

Oc1ccc(C[C@H]2CNC(=S)N2CC2CCCN2C[C@H](Cc2ccc(O)cc2)N2C[C@H](Cc3ccccc3)N(CC3CCCCC3)C2=S)cc1 (some centres not stated)
IC50 [23]: 16.3 µM (active)
IC50 [24]: 22.1 µM (active)

CN(C)c1ccc(C(=O)C=Cc2ccc([N+](=O)[O-])cc2)cc1
IC50 [25]: 80 µM (inactive)

COc1ccc(CNc2nc(NCc3ccc(OC)cc3)c3[nH]cnc3n2)cc1
CC50 (Vero [13]): > 40 µM (active)

CC[C@H]1OC(=O)[C@H](C)[C@@H](O[C@H]2C[C@@](C)(OC)[C@@H](O)[C@H](C)O2)[C@H](C)[C@@H](O[C@@H]2O[C@H](C)C[C@H](N(C)C)[C@H]2O)[C@](C)(O)C[C@@H](C)C(=O)[C@H](C)[C@@H](O)[C@]1(C)O [ERYTHROMYCIN]
IC50 [25]: 47.1 µM (inactive)
EC50 (Streptococcus): < 0.06 µM (active)
EC50 [26]: < 0.06 µM (active)

— ChEMBL document CHEMBL1201862, “PubChem BioAssay data set” (2004)
